The source of these data is US11802111B2, “Cyclobutyl amide monoacylglycerol lipase modulators” (Janssen Pharmaceutica NV, priority 2020, dated 2023).

Each structure is given as a SMILES string.

Sequence of human MGL from HeLa cells (Q99685 whole entry): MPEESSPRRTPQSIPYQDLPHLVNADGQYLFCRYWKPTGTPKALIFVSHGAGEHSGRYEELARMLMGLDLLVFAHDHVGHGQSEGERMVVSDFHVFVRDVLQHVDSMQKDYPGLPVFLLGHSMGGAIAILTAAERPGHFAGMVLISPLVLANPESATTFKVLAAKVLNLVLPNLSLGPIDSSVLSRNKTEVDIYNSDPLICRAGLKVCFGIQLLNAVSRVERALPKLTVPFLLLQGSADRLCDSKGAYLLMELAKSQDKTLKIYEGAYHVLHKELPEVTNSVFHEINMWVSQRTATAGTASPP

This test addresses human MGL from HeLa cells (Homo sapiens (Human), UniProt Q99685). As to the kind of experiment: MGL in vitro activity assay ([glycerol-1,3-3H]-oleoyl glycerol hydrolysis, activated carbon filtration). Conditions: 300 nM [Glycerol-1,3-3H]-oleoyl glycerol, one hour. It is filed as biochemical. In a few lines:
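Endogenous human MGL in HeLa cells/homogenates incubated 1 h with test compounds and 300 nM [glycerol-1,3-3H]-oleoyl glycerol. Released 3H-glycerol passing an activated carbon filter counted as activity; screening at 10 μM compound, top IC50 concentration set empirically.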
In the case of `Cc1ccc(C2CCC3(CC2)CN(C(=O)[C@H]2C[C@@](C)(O)C2)C3)cc1Cl` [Example 22, (7-(3-Chloro-4-methylphenyl)-2-azaspiro[3.5]nonan-2-yl)((1s,3s)-3-hydroxy-3-methylcyclobutyl)methanone], the IC50 – broadly, the concentration needed to halve the response being measured – was determined as 12 nM.

`Cc1ccc(C2CC3(C2)CN(C(=O)[C@H]2C[C@@](C)(O)C2)C3)cc1OC(F)(F)F` [Example 23, ((1s,3s)-3-Hydroxy-3-methylcyclobutyl)(6-(4-methyl-3-(trifluoromethoxy)phenyl)-2-azaspiro[3.3]heptan-2-yl)methanone] gave an IC50 of 45 nM.

The molecule `Cc1ccc(C2CC3(C2)CN(C(=O)[C@H]2C[C@@](C)(O)C2)C3)cc1C1CC1` [Example 27, (6-(3-Cyclopropyl-4-methylphenyl)-2-azaspiro[3.3]heptan-2-yl)((1s,3s)-3-hydroxy-3-methylcyclobutyl)methanone] had an IC50 of 47 nM.

In turn, `Cc1cc(C2CC2)ccc1C1CC2(C1)CN(C(=O)[C@H]1C[C@@](C)(O)C1)C2` [Example 28, (6-(4-Cyclopropyl-2-methylphenyl)-2-azaspiro[3.3]heptan-2-yl)((1s,3s)-3-hydroxy-3-methylcyclobutyl)methanone] returned a concentration for half-maximal inhibition (IC50) of 125 nM.

`C[C@]1(O)C[C@@H](C(=O)N2CC3(CC(c4ccc5ccncc5c4)C3)C2)C1` [Example 30, ((1s,3s)-3-Hydroxy-3-methylcyclobutyl)(6-(isoquinolin-7-yl)-2-azaspiro[3.3]heptan-2-yl)methanone] displayed an IC50 of 1180 nM.

In the case of `C[C@]1(O)C[C@@H](C(=O)N2CC3(CC(c4ccc5cnccc5c4)C3)C2)C1` [Example 31, ((1s,3s)-3-Hydroxy-3-methylcyclobutyl)(6-(isoquinolin-6-yl)-2-azaspiro[3.3]heptan-2-yl)methanone], inhibition was half-maximal at 1600 nM (IC50). The IC50 values of the last two molecules are within 1.5-fold of each other.

As for `C[C@]1(O)C[C@@H](C(=O)N2CC3(CC(c4cccc(N5CCCC5)c4)C3)C2)C1` [Example 32, ((1s,3s)-3-Hydroxy-3-methylcyclobutyl)(6-(3-(pyrrolidin-1-yl)phenyl)-2-azaspiro[3.3]heptan-2-yl)methanone], the IC50 came to 178 nM.

For the molecule `Cc1cc(C2CC3(C2)CN(C(=O)[C@H]2C[C@@](C)(O)C2)C3)ccc1C(F)(F)F` [Example 33, ((1s,3s)-3-Hydroxy-3-methylcyclobutyl)(6-(3-methyl-4-(trifluoromethyl)phenyl)-2-azaspiro[3.3]heptan-2-yl)methanone], the IC50 amounted to 246 nM.

Molecule `CC(C)(C)c1cccc(C2CC3(C2)CN(C(=O)[C@H]2C[C@@](C)(O)C2)C3)n1` [Example 34, (6-(6-(tert-Butyl)pyridin-2-yl)-2-azaspiro[3.3]heptan-2-yl)((1s,3s)-3-hydroxy-3-methylcyclobutyl)methanone] yielded an IC50 of 25 nM.

As for `CC(C)c1cccc(C2CC3(CCN(C(=O)[C@H]4C[C@@](C)(O)C4)C3)C2)c1` (some centres unmarked) [Example 36, ((1s,3s)-3-Hydroxy-3-methylcyclobutyl)(2-(3-isopropylphenyl)-6-azaspiro[3.4]octan-6-yl)methanone], the IC50 came to 153 nM.

For the molecule `C[C@]1(O)C[C@@H](C(=O)N2CC3(CCC(c4ccccc4)CC3)C2)C1` [Example 37, ((1s,3s)-3-Hydroxy-3-methylcyclobutyl)(7-phenyl-2-azaspiro[3.5]nonan-2-yl)methanone], the IC50 turned out to be 58 nM.

`C[C@]1(O)C[C@@H](C(=O)N2CC3(CC[C@H](c4ccc(C5CC5)cc4)C3)C2)C1` [Example 50, ((S)-6-(4-Cyclopropylphenyl)-2-azaspiro[3.4]octan-2-yl)((1s,3R)-3-hydroxy-3-methylcyclobutyl)methanone] showed an IC50 of 9.7 nM.

As for `C[C@]1(O)C[C@@H](C(=O)N2CC3(CC[C@@H](c4ccc(C5CC5)cc4)C3)C2)C1` [Example 51, ((R)-6-(4-Cyclopropylphenyl)-2-azaspiro[3.4]octan-2-yl)((1s,3S)-3-hydroxy-3-methylcyclobutyl)methanone], the IC50 is 5.5 nM.

Take `Cc1cc([C@@H]2CCC3(C2)CN(C(=O)[C@H]2C[C@@](C)(O)C2)C3)ccc1Cl` [Example 69, ((R)-6-(4-Chloro-3-methylphenyl)-2-azaspiro[3.4]octan-2-yl)((1s,3S)-3-hydroxy-3-methylcyclobutyl)methanone]: the IC50 amounted to 15 nM.

Turning to `Cc1cc([C@H]2CCC3(C2)CN(C(=O)[C@H]2C[C@@](C)(O)C2)C3)ccc1Cl` [Example 70, ((S)-6-(4-Chloro-3-methylphenyl)-2-azaspiro[3.4]octan-2-yl)((1s,3R)-3-hydroxy-3-methylcyclobutyl)methanone], the IC50 was 17 nM. The IC50 values of the last two molecules are within 1.5-fold of each other.

`CC(C)(C)c1cccc(C2CC3(CCN(C(=O)[C@H]4C[C@@](C)(O)C4)C3)C2)c1` (some centres unmarked) [Example 89, (2-(3-(tert-Butyl)phenyl)-6-azaspiro[3.4]octan-6-yl)((1s,3s)-3-hydroxy-3-methylcyclobutyl)methanone] registered an IC50 of 126 nM.

Consider `COc1cc(C2CCC3(CC2)CN(C(=O)[C@H]2C[C@@](C)(O)C2)C3)ccc1F` [Example 103, (7-(4-Fluoro-3-methoxyphenyl)-2-azaspiro[3.5]nonan-2-yl)((1s,3s)-3-hydroxy-3-methylcyclobutyl)methanone], for which inhibition was half-maximal at 99 nM (IC50).

For `COc1cc(F)cc(C2CCC3(CC2)CN(C(=O)[C@H]2C[C@@](C)(O)C2)C3)c1` [Example 104, (7-(3-Fluoro-5-methoxyphenyl)-2-azaspiro[3.5]nonan-2-yl)((1s,3s)-3-hydroxy-3-methylcyclobutyl)methanone], the half-maximal inhibitory concentration (IC50) is 26 nM.

`COc1ccc(C2CCC3(CC2)CN(C(=O)[C@H]2C[C@@](C)(O)C2)C3)cc1C` [Example 105, ((1s,3s)-3-Hydroxy-3-methylcyclobutyl)(7-(4-methoxy-3-methylphenyl)-2-azaspiro[3.5]nonan-2-yl)methanone]: the IC50 was 68 nM.

Regarding `COc1cccc(C2CCC3(CC2)CN(C(=O)[C@H]2C[C@@](C)(O)C2)C3)c1C` [Example 106, ((1s,3s)-3-Hydroxy-3-methylcyclobutyl)(7-(3-methoxy-2-methylphenyl)-2-azaspiro[3.5]nonan-2-yl)methanone], the IC50 turned out to be 30 nM.

With `COc1cc(C2CCC3(CC2)CN(C(=O)[C@H]2C[C@@](C)(O)C2)C3)ccc1C(F)(F)F` [Example 113, ((1s,3s)-3-Hydroxy-3-methylcyclobutyl)(7-(3-methoxy-4-(trifluoromethyl)phenyl)-2-azaspiro[3.5]nonan-2-yl)methanone], half-maximal inhibition (IC50) was put at 37 nM. The IC50 values of the last two molecules are within 1.5-fold of each other.

`COc1ccc(C2CCC3(CC2)CN(C(=O)[C@H]2C[C@@](C)(O)C2)C3)cc1C(F)(F)F` [Example 114, ((1s,3s)-3-Hydroxy-3-methylcyclobutyl)(7-(4-methoxy-3-(trifluoromethyl)phenyl)-2-azaspiro[3.5]nonan-2-yl)methanone] came in with a 50% inhibitory concentration (IC50) of 65 nM.

`CN(C)c1cc(C2CCC3(CC2)CN(C(=O)[C@H]2C[C@@](C)(O)C2)C3)ccc1C(F)(F)F` [Example 115, (7-(3-(Dimethylamino)-4-(trifluoromethyl)phenyl)-2-azaspiro[3.5]nonan-2-yl)((1s,3s)-3-hydroxy-3-methylcyclobutyl)methanone] showed an IC50 of 17 nM.

On to `CC(C)(C)c1cccc(C2CCC3(CC2)CN(C(=O)[C@H]2C[C@@](C)(O)C2)C3)n1` [Example 116, (7-(6-(tert-Butyl)pyridin-2-yl)-2-azaspiro[3.5]nonan-2-yl)((1s,3s)-3-hydroxy-3-methylcyclobutyl)methanone], for which the IC50 is 4.4 nM.

`COc1cccc(C2CCC3(CC2)CN(C(=O)[C@H]2C[C@@](C)(O)C2)C3)n1` [Example 117, ((1s,3s)-3-Hydroxy-3-methylcyclobutyl)(7-(6-methoxypyridin-2-yl)-2-azaspiro[3.5]nonan-2-yl)methanone]: the half-inhibitory concentration (IC50) amounted to 420 nM. This IC50 lies about 95-fold higher than the previous one.

`COc1ccc(C2CCC3(CC2)CN(C(=O)[C@H]2C[C@@](C)(O)C2)C3)cc1C(C)(C)C` [Example 118, (7-(3-(tert-Butyl)-4-methoxyphenyl)-2-azaspiro[3.5]nonan-2-yl)((1s,3s)-3-hydroxy-3-methylcyclobutyl)methanone] returned an IC50 of 20 nM. Against the preceding molecule, the IC50 is about 21-fold lower.

`COc1cc(C2CCC3(CC2)CN(C(=O)[C@H]2C[C@@](C)(O)C2)C3)cc(C(F)(F)F)c1` [Example 119, ((1s,3s)-3-Hydroxy-3-methylcyclobutyl)(7-(3-methoxy-5-(trifluoromethyl)phenyl)-2-azaspiro[3.5]nonan-2-yl)methanone] gave an IC50 of 12 nM.

In turn, `CCOc1cc(C2CCC3(CC2)CN(C(=O)[C@H]2C[C@@](C)(O)C2)C3)cc(C(F)(F)F)c1` [Example 120, (7-(3-Ethoxy-5-(trifluoromethyl)phenyl)-2-azaspiro[3.5]nonan-2-yl)((1s,3s)-3-hydroxy-3-methylcyclobutyl)methanone] displayed an IC50 of 141 nM.

In turn, `CCc1cc(C)cc(C2CCC3(CC2)CN(C(=O)[C@H]2C[C@@](C)(O)C2)C3)c1` [Example 121, (7-(3-Ethyl-5-methylphenyl)-2-azaspiro[3.5]nonan-2-yl)((1s,3s)-3-hydroxy-3-methylcyclobutyl)methanone] came in with an IC50 of 7.4 nM.

Take `Cn1ncc2cc(C3CCC4(CC3)CN(C(=O)[C@H]3C[C@@](C)(O)C3)C4)ccc21` [Example 122, ((1s,3s)-3-Hydroxy-3-methylcyclobutyl)(7-(1-methyl-1H-indazol-5-yl)-2-azaspiro[3.5]nonan-2-yl)methanone]: the midpoint of inhibition, the IC50, lay at 143 nM.

In the case of `CN(C)c1cc(C2CCC3(CC2)CN(C(=O)[C@H]2C[C@@](C)(O)C2)C3)cc(C(F)(F)F)c1` [Example 123, (7-(3-(Dimethylamino)-5-(trifluoromethyl)phenyl)-2-azaspiro[3.5]nonan-2-yl)((1s,3s)-3-hydroxy-3-methylcyclobutyl)methanone], the IC50 was 27 nM.

In turn, `C[C@]1(O)C[C@@H](C(=O)N2CC3(CCC(c4ccc5ccccc5n4)CC3)C2)C1` [Example 124, ((1s,3s)-3-Hydroxy-3-methylcyclobutyl)(7-(quinolin-2-yl)-2-azaspiro[3.5]nonan-2-yl)methanone] yielded an IC50 of 227 nM.
